The source of these data is ChEMBL document CHEMBL4613228, “Identification of small-molecule urea derivatives as novel NAMPT inhibitors via pharmacophore-based virtual screening” (Bioorg Med Chem, 2020).

Structures are written as SMILES.

Test [1] concerns HepG2. As to the kind of experiment: Cytotoxicity against human HepG2 cells assessed as reduction in cell viability measured after 72 hrs by SRB assay. The test is classed as functional, cell-based. The note with it: for IC50: HepG2, 72 h.
The target of test [2] is Nicotinamide phosphoribosyltransferase (Homo sapiens, UniProt P43490). Put plainly: Inhibition of NAMPT (unknown origin) using NAM and PRPP as substrates incubated for 2 hrs in presence of ATP by fluorimetric plate reader assay.
Nicotinamide phosphoribosyltransferase, sequence (P43490 whole entry): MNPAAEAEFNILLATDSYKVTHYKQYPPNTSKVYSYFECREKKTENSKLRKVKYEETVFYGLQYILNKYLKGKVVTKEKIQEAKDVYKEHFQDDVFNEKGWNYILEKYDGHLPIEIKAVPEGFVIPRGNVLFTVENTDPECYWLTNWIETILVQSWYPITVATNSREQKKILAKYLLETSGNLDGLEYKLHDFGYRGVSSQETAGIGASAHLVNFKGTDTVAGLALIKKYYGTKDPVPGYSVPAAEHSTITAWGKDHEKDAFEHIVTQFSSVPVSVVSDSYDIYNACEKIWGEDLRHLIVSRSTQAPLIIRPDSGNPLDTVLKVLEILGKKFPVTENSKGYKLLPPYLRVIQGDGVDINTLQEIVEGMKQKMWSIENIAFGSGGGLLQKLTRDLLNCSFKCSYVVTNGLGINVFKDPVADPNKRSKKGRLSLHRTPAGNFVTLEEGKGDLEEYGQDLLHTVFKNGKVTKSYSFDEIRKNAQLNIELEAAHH

On to `O=C(/C=C/c1cccnc1)NCCCCC1CCN(C(=O)c2ccccc2)CC1` [DAPORINAD], for which the IC50 in test [1] turned out to be 0.0187 µM.

Consider `CCOC(=O)c1ccc(NC(=O)NCc2ccnc(-n3ccnc3C)c2)cc1`, for which the values for the concentration for half-maximal inhibition (IC50) in test [2] and in test [1] were 7.31 µM and 24.3 µM, respectively.

With `CCCOC(=O)c1ccc(NC(=O)NCc2cccnc2)cc1`, the 50% inhibitory concentration (IC50) in test [2] amounted to 2.15 µM. Also, in test [1], the inhibition entry is “Dose-dependent effect” and the IC50 was determined as 15.2 µM.
